Reference: patent US20190076507A1, “Artificial Red Blood Cell Having Ability to Inhibit Conversion of Hemoglobin into Methemoglobin” (Public University Corporation Nara Medical University, priority 2016, published 2019)

Key:
Type in all cases: biochemical
[1] = Catalase (pseudo CAT) activity from change of absorbance at 230 nm of H2O2
Description: (§1) The activity of NADH-cytochrome b5 reductase in the above-mentioned purified and concentrated HbCO solution was determined as NADH-ferricyanide reductase activity according to Beutler, E. above. Diluted Hb samples comprising the enzyme to be measured is mixed with a buffer comprising NADH. The mixed solutions were left standing for 10 minutes at 30° C., and then potassium ferricyanide (K3Fe (CN)6), the enzyme substrate, was added to start the enzyme reaction. The decrease of difference of absorbance at 340 nm, a characteristic absorption of NADH, per minute was measured to determine activity unit E (IU/gHb). […] It was reasoned that the heat-labile NADH-cytochrome b5 reductase was eliminated as denatured and insoluble, or denatured and inactivated, due to the introduction of heat treatment during the purifying step. In addition, activities of NADPH metHb reductase and NADPH diaphorase, which correspond to NADPH-flavin reductase are also determined by the above-mentioned methods according to Beutler, E. Diluted blood samples comprising the enzyme to be measured is mixed with a buffer comprising NADPH. The mixed solutions were left standing for 10 minutes at 37° C., and then methylene bleu (MeBl), the enzyme substrate, was added to start the enzyme reaction. The decrease of difference of absorbance at 340 nm, a characteristic absorption of NADPH, per minute was measured to determine activity unit E (IU/gHb). […] Catalase activity of the purified HbCO solution was determined from the change of the absorbance at 230 nm, the absorption wavelength of H2O2, according to Beutler, E. (RED CELL METABOLISM: A MANUAL OF BIOCHEMICAL METHOD, Grune &Stratton, Inc. pp. 105-106 (1987)). […] Pyrogallol was used for measurement of SOD activity (Marklund, S. and Marklund, G., Eur. J. Biochem. 47, 469-474 (1974); Roth, E. F. Jr. and Gilbert, H. S., Anal. Biochem. 137, 50-53(1984)). Pyrogallol is oxidized with oxygen to generate superoxide, and further reacted to generate a yellow dye with absorbance at 420 nm. SOD inhibits this reaction. SOD enzyme activity was determined based on this inhibitory activity. Analyzed specimens were solutions of purified HbO2, HbCO, metHb and solutions thereof further comprising NADH or L-tyrosine In addition, enzyme activity of crude SFHb solution was also determined as a control. […] When NADH and HbO2 were coexisted, however, high CAT and SOD pseudo activities (Table 1). […] The pseudo activity was detected when NADH alone was present, however, the activity was about a tenth ( 1/10) compared with when HbO2 was coexisted. […] There were results showing that this pseudo activity increased as more NADH was added.

[2] = SOD (pseudo SOD) activity, pyrogallol method; conditions: ratio
Description: as §1

HbO2 [3] = target: T1, HbO2 (Homo sapiens, UniProt P68871+P69905); experiment: Screening of suppressing effect of compounds against autoxidation of HbO2; conditions: HbO2 10 g/dL, antioxidant 1 g/dL, 37° C., 24 hours
T1 construct: The Hb released by hemolysis was filtered and collected, with the red blood cell membrane components (stroma) separated and removed; from tissue; host or cells: human red blood cells (expired donated blood); heat-treated, nanofiltered, purified and concentrated HbCO, photoconverted to HbO2
Description: NADH was purchased from Oriental Yeast Co. Ltd., and all the rest were purchased from Sigma-Aldrich (St. Louis, Mo., USA). HbCO solution was transferred to an eggplant flask and irradiated with visible light (halogen lamp; LPL Videeoligtvl-302, LPLCO. Ltd., Tokyo, Japan) under oxygen gas flow to convert to HbO2. […] The conversion ratios to metHb were determined from the visible absorption spectrum. The measurement of spectrum between 300 nm to 500 nm was conducted using a spectrophotometer (V-660, Japan Spectroscopic Company (JASCO)) mounted with a device to control the light scattering to the minimum (an integrating sphere). The atmosphere inside of a Thunberg cuvette was replaced with nitrogen gas and the conversion ratios to metHb were determined from the ratios of absorbance at 405 nm (λmax of metHb) and 430 nm (λmax of deoxyHb).

HbO2 [4] = target: T1, HbO2; experiment: Oxidant-promoted metHb conversion in non-encapsulated HbO2 solution with NADH (absorbance at 630 nm); conditions: 10 and 40 minutes, vs no NADH
Description: To examine the suppression of Hb oxidation by encapsulation of NADH further in detail, similar experiments were carried out for Hb solution which was not encapsulated.
(1) First, metHb conversion supplemented with NOC7 was studied. To a cuvette with an optical path length of 1 cm, 3 mL of phosphate buffered saline, 30 μL of HbO2 solution (1.5 mM), 30 μL of NADH solution (1.5 mM) and 30 μL of NOC (1.5 mM in PBS) were mixed and the change of absorbance at 630 nm, the absorption wavelength of metHb, at 25° C. was immediately monitored for 10 minutes and for 40 minutes (FIGS. 6A and 6B). In the graphs of FIGS. 6A and 6B, the absorbance at 630 nm was put on the vertical axis and incubation time (second) was put on the horizontal axis. The three lines in FIG. 6A represent a change over time of metHb when the solution comprising HbO2 and NADH was supplemented with NOC7 (HbO2+NADH+NOC7), a change over time of metHb when the solution comprising HbO2 but not NADH was supplemented with NOC7 (HbO2+NOC7) and a change over time of metHb when the solution comprising HbO2 was neither supplemented with NADH nor NOC7 (HbO2+water). […] To a cuvette with an optical path length of 1 cm, 3 mL of PBS, 30 μL of HbO2 solution (1.5 mM), 30 μL of NADH solution (1.5 mM) and 30 μL of H2O2 (1.5 mM) were mixed and the change of absorbance at 630 nm at 25° C. was immediately monitored for 10 minutes and for 40 minutes (FIGS. 7A and 7B). In the graphs of FIGS. 7A and 7B, the absorbance at 630 nm was put on the vertical axis and incubation time (second) was put on the horizontal axis. […] To a cuvette with an optical path length of 1 cm, 3 mL of PBS, 30 μL of HbO2 solution (1.5 mM), 30 μL of NADH solution (1.5 mM) and 30 μL of NaNO2 (1.5 mM in PBS) were mixed and the change of absorbance at 630 nm at 25° C. was immediately monitored for 10 minutes and for 40 minutes (FIGS. 8A and […]). In the graphs of FIGS. 8A and […], the absorbance at 630 nm was put on the vertical axis and incubation time (second) was put on the horizontal axis. […]

[5] = target: T2, NADH-cytochrome b5 reductase (Homo sapiens, UniProt P00387); experiment: NADH-cytochrome b5 reductase activity determined as NADH-ferricyanide reductase activity; conditions: 30° C., potassium ferricyanide substrate, decrease of absorbance at 340 nm
T2 construct: from tissue; host or cells: human red blood cells (expired donated blood), crude stroma-free haemolysate (SFHb)
T2 sequence (P00387 1-278 isoform P00387-2): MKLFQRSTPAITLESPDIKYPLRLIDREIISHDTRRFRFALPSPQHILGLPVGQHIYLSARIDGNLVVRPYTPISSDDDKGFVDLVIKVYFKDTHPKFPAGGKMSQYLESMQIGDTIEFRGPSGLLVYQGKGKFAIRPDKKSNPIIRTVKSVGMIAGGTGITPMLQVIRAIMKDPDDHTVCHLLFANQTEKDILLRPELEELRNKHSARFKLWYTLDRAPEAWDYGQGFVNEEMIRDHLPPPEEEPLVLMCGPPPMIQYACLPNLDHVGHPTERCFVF
Description: For the enzyme for reducing metHb herein, “substantially free of enzyme activity” means that the enzyme activity is 10%, 5%, 3%, 1%, 0.5%, 0.2%, 0.1%, 0.05% or 0.03% or less, or below detectable limits, of enzyme activity of the enzyme for reducing metHb existing in the Hb solution purified and concentrated from blood derived from humans or domestic animals. The enzyme activity of the enzyme for reducing metHb herein disclosed herein is determined, for example, by the following procedure. Determination of NADH-cytochrome b5 reductase may be carried out according to Beutler, E. (RED CELL METABOLISM: A MANUAL OF BIOCHEMICAL METHOD, Grune &Stratton, Inc., pp. 81-82 (1987)). […]
the enzyme activity is measured by tracing the degree of acceleration by adding sample comprising oxygen. The measurement is carried out by measuring the change (decrease) in absorbance at 340 nm which is the characteristic absorption of the consumed NADH.
The activity of NADH-cytochrome b5 reductase in the above-mentioned purified and concentrated HbCO solution was determined as NADH-ferricyanide reductase activity according to Beutler, E. above. Diluted Hb samples comprising the enzyme to be measured is mixed with a buffer comprising NADH. […] The decrease of difference of absorbance at 340 nm, a characteristic absorption of NADH, per minute was measured to determine activity unit E (IU/gHb). […]

NADPH-flavin reductase = target: T3, NADPH-flavin reductase (Homo sapiens, UniProt P30043); experiment: NADPH metHb reductase / NADPH diaphorase (NADPH-flavin reductase) activity with methylene blue; conditions: 37° C., methylene blue substrate, decrease of absorbance at 340 nm
T3 construct: from tissue; host or cells: human red blood cells (expired donated blood), crude stroma-free haemolysate (SFHb)
T3 sequence (P30043 1-206): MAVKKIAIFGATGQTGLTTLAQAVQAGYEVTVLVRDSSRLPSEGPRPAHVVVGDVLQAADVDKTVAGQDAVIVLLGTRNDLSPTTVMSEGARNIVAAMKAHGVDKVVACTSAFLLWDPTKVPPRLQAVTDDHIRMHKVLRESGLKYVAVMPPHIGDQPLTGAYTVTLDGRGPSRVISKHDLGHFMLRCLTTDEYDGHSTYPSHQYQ
Description: Determination of NADPH-flavin reductase activity may be carried out according to Beutler, E. (RED CELL METABOLISM: A MANUAL OF BIOCHEMICAL METHOD, Grune &Stratton, Inc., pp. 79-80 (1987)). The principle of determination of this method is to measure […]. The reaction of reducing methylene bleu (MeBl) to leucomethylene blue (LeukMeBl) as follows:
NADPH+H^++MeBl→NADP^++LeukMeBl
the reaction is known to be slow. The enzyme activity is measured by tracing the degree of acceleration by adding sample comprising oxygen. The measurement is carried out based on the above-mentioned principle by measuring the change (decrease) in absorbance at 340 nm which is the characteristic absorption of the consumed NADPH.
The activity of NADH-cytochrome b5 reductase in the above-mentioned purified and concentrated HbCO solution was determined as NADH-ferricyanide reductase activity according to Beutler, E. above. Diluted Hb samples comprising the enzyme to be measured is mixed with a buffer comprising NADH. […] The decrease of difference of absorbance at 340 nm, a characteristic absorption of NADH, per minute was measured to determine activity unit E (IU/gHb). […] The decrease of difference of absorbance at 340 nm, a characteristic absorption of NADPH, per minute was measured to determine activity unit E (IU/gHb). […]

T1 sequence (P69905 2-142 limits assumed): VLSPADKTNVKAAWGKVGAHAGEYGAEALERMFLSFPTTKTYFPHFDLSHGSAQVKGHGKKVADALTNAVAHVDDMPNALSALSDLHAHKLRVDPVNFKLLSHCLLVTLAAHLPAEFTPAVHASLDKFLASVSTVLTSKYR
T1 sequence (P68871 2-147 limits assumed): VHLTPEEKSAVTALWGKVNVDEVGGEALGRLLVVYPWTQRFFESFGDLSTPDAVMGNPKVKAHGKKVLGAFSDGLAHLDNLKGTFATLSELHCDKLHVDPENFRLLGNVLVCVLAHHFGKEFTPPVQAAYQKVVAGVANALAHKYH

NADPH metHb reductase / NADPH diaphorase (NADPH-flavin reductase) activity (activity unit E) (NADPH-flavin reductase) | NADPH metHb reductase / NADPH diaphorase (NADPH-flavin reductase) activity (activity unit E) (NADPH-flavin reductase; listed as Hb solution) | Compound | CAT pseudo activity of NADH alone compared with when HbO2 was coexisted ([1]; ratio) | SOD pseudo activity of NADH alone compared with when HbO2 was coexisted [2] | metHb conversion (%) (HbO2 [3]) | increase of metHb-specific absorbance at 630 nm (HbO2 [4]; HbO2 solution + H2O2, 25° C.) | increase of metHb-specific absorbance at 630 nm (HbO2 [4]; HbO2 solution + NOC7, 25° C.) | increase of metHb-specific absorbance at 630 nm (HbO2 [4]; HbO2 solution + NaNO2, 25° C.) | NADH-cytochrome b5 reductase activity (activity unit E) [5] | NADH-cytochrome b5 reductase activity (activity unit E) ([5]; listed as Hb solution) | Catalase activity ([1]; change of absorbance at 230 nm of H2O2, Example 1)
 |  | NC(=O)C1=CN([C@@H]2O[C@H](COP(=O)(O)OP(=O)(O)OC[C@H]3O[C@@H](n4cnc5c(N)ncnc54)[C@H](O)[C@@H]3O)[C@@H](O)[C@H]2O)C=CC1 [NADH, nicotinamide adenine dinucleotide (NADH)] | 1/10 | 1/10 | 17 | remarkably suppressed | remarkably suppressed | remarkably suppressed |  |  | 
below 0.01 IU/gHb | does not show enzymatic activities | purified and concentrated Hb: human Hb purified with heat treatment (60° C., 12 hours) and nanofiltration, concentrated to 40 to 42 g/dL |  |  |  |  |  |  | did not detect any activity | does not show enzymatic activities | ≤ 0.03×10^4 IU/gHb
